Source: paper PMC6968643, “Synthesis and biological evaluation of novel (E)-N'-benzylidene hydrazides as novel c-Met inhibitors through fragment based virtual screening” (Journal of Enzyme Inhibition and Medicinal Chemistry, 2020)

Assays:
[1] = biological target: VEGFR-2 (Homo sapiens, UniProt P35968); experiment: Kinase activity against VEGFR-2; format: biochemical; settings: for IC50: Table 3, inhibitory activity (IC50) against VEGFR-2, – = no inhibitory effect
Source text: It was consistent with the QSAR predicted results. […] Both of the proteins belong to the family of tyrosine kinase, which catalyse the phosphorylation of tyrosine. […] While subtle differences may make small molecules show different activities against the two kinases. So we superimposed the two kinases in three dimensions to explore the reason.

[2] = biological target: recombinant c-Met kinase (Homo sapiens, UniProt P08581); experiment: Cell-free detection of c-Met kinase activity (ADP-Glo assay)
Sequence of recombinant c-Met kinase (P08581 25-1390): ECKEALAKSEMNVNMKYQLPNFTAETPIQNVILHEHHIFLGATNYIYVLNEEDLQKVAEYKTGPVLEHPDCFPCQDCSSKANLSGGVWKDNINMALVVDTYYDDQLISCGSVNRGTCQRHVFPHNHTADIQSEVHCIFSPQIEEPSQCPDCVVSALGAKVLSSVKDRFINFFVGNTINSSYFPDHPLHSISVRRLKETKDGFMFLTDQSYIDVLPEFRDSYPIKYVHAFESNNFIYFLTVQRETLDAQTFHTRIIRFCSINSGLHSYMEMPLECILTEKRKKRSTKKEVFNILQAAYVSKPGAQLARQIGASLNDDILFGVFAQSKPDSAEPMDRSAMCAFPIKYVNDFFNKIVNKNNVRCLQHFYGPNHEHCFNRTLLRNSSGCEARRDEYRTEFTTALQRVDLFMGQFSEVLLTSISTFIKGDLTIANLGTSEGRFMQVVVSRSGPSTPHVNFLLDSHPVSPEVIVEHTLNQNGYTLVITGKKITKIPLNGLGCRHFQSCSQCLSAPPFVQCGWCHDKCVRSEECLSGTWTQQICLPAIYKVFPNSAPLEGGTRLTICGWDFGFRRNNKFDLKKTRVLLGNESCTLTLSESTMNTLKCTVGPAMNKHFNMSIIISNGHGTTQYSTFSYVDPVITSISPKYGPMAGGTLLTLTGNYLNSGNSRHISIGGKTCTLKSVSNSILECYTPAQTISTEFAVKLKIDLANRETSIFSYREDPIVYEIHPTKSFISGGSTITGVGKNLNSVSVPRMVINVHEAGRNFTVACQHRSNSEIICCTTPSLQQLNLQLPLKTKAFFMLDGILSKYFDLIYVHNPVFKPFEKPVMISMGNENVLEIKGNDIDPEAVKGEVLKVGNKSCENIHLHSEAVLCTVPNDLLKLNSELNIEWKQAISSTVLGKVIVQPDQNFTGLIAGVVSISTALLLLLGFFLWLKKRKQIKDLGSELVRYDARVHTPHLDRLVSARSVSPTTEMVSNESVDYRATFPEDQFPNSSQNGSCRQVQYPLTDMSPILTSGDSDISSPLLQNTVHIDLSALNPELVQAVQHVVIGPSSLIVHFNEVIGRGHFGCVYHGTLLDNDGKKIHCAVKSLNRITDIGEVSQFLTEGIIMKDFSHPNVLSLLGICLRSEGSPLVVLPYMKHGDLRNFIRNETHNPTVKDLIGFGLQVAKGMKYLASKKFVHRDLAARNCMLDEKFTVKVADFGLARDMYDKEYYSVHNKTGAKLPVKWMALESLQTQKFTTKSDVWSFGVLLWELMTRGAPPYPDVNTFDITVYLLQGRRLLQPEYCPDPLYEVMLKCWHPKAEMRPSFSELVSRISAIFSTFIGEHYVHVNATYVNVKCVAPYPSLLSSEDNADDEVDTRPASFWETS
Procedure: The capacity of the novel compounds for inhibiting c-Met activity was evaluated using a cell-free assay.

Sequence of VEGFR-2 (P35968 20-1356): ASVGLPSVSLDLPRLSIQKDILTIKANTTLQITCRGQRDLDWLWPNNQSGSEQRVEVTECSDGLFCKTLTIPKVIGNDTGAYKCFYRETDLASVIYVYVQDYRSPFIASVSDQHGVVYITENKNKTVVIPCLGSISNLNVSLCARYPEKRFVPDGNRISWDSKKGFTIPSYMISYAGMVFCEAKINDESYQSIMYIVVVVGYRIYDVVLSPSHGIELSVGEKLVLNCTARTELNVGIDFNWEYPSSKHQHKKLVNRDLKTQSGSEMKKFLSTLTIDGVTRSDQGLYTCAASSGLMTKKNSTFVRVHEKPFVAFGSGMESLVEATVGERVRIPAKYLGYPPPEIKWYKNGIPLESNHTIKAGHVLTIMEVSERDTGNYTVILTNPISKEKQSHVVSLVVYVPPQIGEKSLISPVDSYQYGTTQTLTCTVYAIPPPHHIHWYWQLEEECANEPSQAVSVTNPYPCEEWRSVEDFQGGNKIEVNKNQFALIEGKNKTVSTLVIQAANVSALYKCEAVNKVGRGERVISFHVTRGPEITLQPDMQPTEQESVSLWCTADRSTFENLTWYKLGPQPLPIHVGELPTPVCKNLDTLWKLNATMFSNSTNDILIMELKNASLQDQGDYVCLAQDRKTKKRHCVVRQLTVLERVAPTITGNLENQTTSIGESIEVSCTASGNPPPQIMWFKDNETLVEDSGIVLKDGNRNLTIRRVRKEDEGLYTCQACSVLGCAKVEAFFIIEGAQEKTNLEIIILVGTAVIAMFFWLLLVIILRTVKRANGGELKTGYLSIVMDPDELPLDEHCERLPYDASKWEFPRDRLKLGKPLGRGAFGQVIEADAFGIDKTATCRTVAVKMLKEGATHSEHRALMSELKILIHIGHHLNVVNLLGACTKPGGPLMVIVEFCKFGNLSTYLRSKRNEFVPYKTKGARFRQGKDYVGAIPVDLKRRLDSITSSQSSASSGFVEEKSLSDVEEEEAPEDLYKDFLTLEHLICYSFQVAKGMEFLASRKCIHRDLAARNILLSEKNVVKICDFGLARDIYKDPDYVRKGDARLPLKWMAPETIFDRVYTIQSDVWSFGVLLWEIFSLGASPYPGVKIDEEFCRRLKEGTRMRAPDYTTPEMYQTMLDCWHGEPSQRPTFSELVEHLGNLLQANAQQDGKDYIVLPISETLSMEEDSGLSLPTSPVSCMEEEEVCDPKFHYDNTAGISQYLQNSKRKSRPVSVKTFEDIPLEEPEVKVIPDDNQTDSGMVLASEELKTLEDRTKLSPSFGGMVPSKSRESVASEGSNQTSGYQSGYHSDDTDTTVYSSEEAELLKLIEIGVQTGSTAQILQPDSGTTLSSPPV

Structure (SMILES) | IC50 [1] | melting point | IC50 [2] | activity against VEGFR-2 (in words) [1]
COc1ccc(/C=N/NC(=O)Cn2cc(-c3cccc(NC(C)=O)c3)nn2)cc1OC [Compound 10j, (E)-2-(4-(3-acetamidophenyl)-1H-1,2,3-triazol-1-yl)-N'-(3,4-dimethoxybenzylidene) acetohydrazide] | – | 230 to 230.6 °C | 5.42 nM | –
CC(=O)Nc1cccc(-c2cn(CC(=O)N/N=C/c3cc(Br)cc(Br)c3O)nn2)c1 [Compound 10g, (E)-2-(4-(3-acetamidophenyl)-1H-1,2,3-triazol-1-yl)-N'-(3,5-dibromo-2-hydroxybenzylidene)acetohydrazide] | – | 237 to 237.5 °C | 8930 nM | –
CC(=O)Nc1cccc(-c2cn(CC(=O)N/N=C/c3ccccc3[N+](=O)[O-])nn2)c1 [Compound 10e, (E)-2-(4-(3-acetamidophenyl)-1H-1,2,3-triazol-1-yl)-N'-(2-nitrobenzylidene)acetohydrazide] | – | 233.2 to 233.8 °C | 5860 nM | –
O=C(Cn1cc(-c2ccccc2)nn1)N/N=C/c1ccc(O)cc1 [Compound 11c, (E)-N'-(4-hydroxybenzylidene)-2-(4-phenyl-1H-1,2,3-triazol-1-yl)acetohydrazide] | – | 234 to 234.5 °C | 5680 nM | –
COc1ccc(/C=N/NC(=O)Cn2cc(-c3ccccc3)nn2)c(OC)c1 [Compound 11i, (E)-N'-(2,4-dimethoxybenzylidene)-2-(4-phenyl-1H-1,2,3-triazol-1-yl)acetohydrazide] | 849 nM | 230 to 230.4 °C | > 12000 nM | –
CC(=O)Nc1cccc(-c2cn(CC(=O)N/N=C/c3cccc(Cl)c3)nn2)c1 [Compound 10b, (E)-2-(4-(3-acetamidophenyl)-1H-1,2,3-triazol-1-yl)-N'-(3-chlorobenzylidene)] | > 12000 nM | 255.8 to 256.3 °C | 0.37 nM | no activity
O=C(Cn1cc(-c2ccccc2)nn1)N/N=C/c1ccc(Cl)cc1 [Compound 11a, (E)-N'-(4-chlorobenzylidene)-2-(4-phenyl-1H-1,2,3-triazol-1-yl)acetohydrazide] | – | 259 to 259.6 °C | > 12000 nM | –
O=C(Cn1cc(-c2ccccc2)nn1)N/N=C/c1cccc(Cl)c1 [Compound 11b, (E)-N'-(3-chlorobenzylidene)-2-(4-phenyl-1H-1,2,3-triazol-1-yl)acetohydrazide] | 25.3 nM | 259 to 259.8 °C | 3.41 nM | –
CC(=O)Nc1cccc(-c2cn(CC(=O)N/N=C/c3ccc(Cl)cc3)nn2)c1 [Compound 10a, (E)-2-(4-(3-acetamidophenyl)-1H-1,2,3-triazol-1-yl)-N'-(4-chlorobenzylidene)] | – | 234.6 to 234.9 °C | 1.7 nM | –
CC(=O)Nc1cccc(-c2cn(CC(=O)N/N=C/c3ccc(O)cc3)nn2)c1 [Compound 10c, (E)-2-(4-(3-acetamidophenyl)-1H-1,2,3-triazol-1-yl)-N'-(4-hydroxybenzylidene) acetohydrazide] | – | 260 to 260.8 °C | 11200 nM | –

The remaining lines, values ahead:

IC50 [1] | melting point | IC50 [2] | activity against VEGFR-2 (in words) [1] | Structure (SMILES)
139 nM | 234.6 to 234.9 °C | 1.19 nM | – | CC(=O)Nc1cccc(-c2cn(CC(=O)N/N=C/c3cc(Cl)ccc3O)nn2)c1 [Compound 10f, (E)-2-(4-(3-acetamidophenyl)-1H-1,2,3-triazol-1-yl)-N'-(5-chloro-2-hydroxybenzylidene) acetohydrazide]
– | 210.2 to 212.9 °C | 91.5 nM | – | COc1cc(/C=N/NC(=O)Cn2cc(-c3cccc(NC(C)=O)c3)nn2)cc(OC)c1OC [Compound 10k, (E)-2-(4-(3-acetamidophenyl)-1H-1,2,3-triazol-1-yl)-N'-(3,4,5-trimethoxybenzylidene) acetohydrazide]
– | 232.1 to 232.5 °C | 3080 nM | – | COc1ccc(/C=N/NC(=O)Cn2cc(-c3ccccc3)nn2)cc1OC [Compound 11j, (E)-N'-(3,4-dimethoxybenzylidene)-2-(4-phenyl-1H-1,2,3-triazol-1-yl)acetohydrazide]
– | 233.5 to 233.8 °C | > 12000 nM | – | COc1cc(/C=N/NC(=O)Cn2cc(-c3ccccc3)nn2)cc(OC)c1OC [Compound 11k, (E)-2-(4-phenyl-1H-1,2,3-triazol-1-yl)-N'-(3,4,5-trimethoxybenzylidene)acetohydrazide]
9860 nM | 240 to 240.6 °C | > 12000 nM | – | O=C(Cn1cc(-c2ccccc2)nn1)N/N=C/c1cc(Cl)ccc1O [Compound 11f, (E)-N'-(5-chloro-2-hydroxybenzylidene)-2-(4-phenyl-1H-1,2,3-triazol-1-yl)acetohydrazide]
– | 225.2 to 225.6 °C | 4280 nM | – | O=C(Cn1cc(-c2ccccc2)nn1)N/N=C/c1ccccc1[N+](=O)[O-] [Compound 11e, (E)-N'-(2-nitrobenzylidene)-2-(4-phenyl-1H-1,2,3-triazol-1-yl)acetohydrazide]
– | 228.9 to 229.3 °C | > 12000 nM | – | CC(=O)Nc1cccc(-c2cn(CC(=O)N/N=C/c3cc(Br)ccc3O)nn2)c1 [Compound 10h, (E)-2-(4-(3-acetamidophenyl)-1H-1,2,3-triazol-1-yl)-N'-(5-bromo-2-hydroxybenzylidene) acetohydrazide]
– | 253.8 to 254.2 °C | 266 nM | – | CC(=O)Nc1cccc(-c2cn(CC(=O)N/N=C/c3ccccc3O)nn2)c1 [Compound 10d, (E)-2-(4-(3-acetamidophenyl)-1H-1,2,3-triazol-1-yl)-N'-(2-hydroxybenzylidene) acetohydrazide]
– | 231 to 231.5 °C | > 12000 nM | – | O=C(Cn1cc(-c2ccccc2)nn1)N/N=C/c1cc(Br)cc(Br)c1O [Compound 11g, (E)-N'-(3,5-dibromo-2-hydroxybenzylidene)-2-(4-phenyl-1H-1,2,3-triazol-1-yl) acetohydrazide]
– | 233 to 233.5 °C | 11.9 nM | – | O=C(Cn1cc(-c2ccccc2)nn1)N/N=C/c1cc(Br)ccc1O [Compound 11h, (E)-N'-(5-bromo-2-hydroxybenzylidene)-2-(4-phenyl-1H-1,2,3-triazol-1-yl)acetohydrazide]
– | 210.9 to 211.3 °C | 1.73 nM | – | COc1ccc(/C=N/NC(=O)Cn2cc(-c3cccc(NC(C)=O)c3)nn2)c(OC)c1 [Compound 10i, (E)-2-(4-(3-acetamidophenyl)-1H-1,2,3-triazol-1-yl)-N'-(2,4-dimethoxybenzylidene) acetohydrazide]
– | 239 to 239.6 °C | > 12000 nM | – | O=C(Cn1cc(-c2ccccc2)nn1)N/N=C/c1ccccc1O [Compound 11d, (E)-N'-(2-hydroxybenzylidene)-2-(4-phenyl-1H-1,2,3-triazol-1-yl)acetohydrazide]
